# Measurements: US10172907B2, “Compositions comprising β-arrestin 1 and methods of use thereof for therapeutic modulation of aldosterone levels in heart disease” (NOVA SOUTHEASTERN UNIVERSITY, priority 2010, dated 2019)
# pEC50: −log10 of the molar value. “Also recorded” adds a separate entry of the source. Non-standard residues stand in square brackets, D forms with d. Residues, ends and D or L forms follow the SMILES beside them. Sar = CNCC(=O)O
# Experiments:
# [1] = tested on: adrenal βarr1-overexpressing post-MI rats; assay: Echocardiography (ejection fraction) of adrenal βarr1-overexpressing post-MI rats treated with sartans and CORET; type: in vivo, rat; settings: for cardiac ejection fraction (EF): adrenal βarr1-overexpressing post-MI rats, 7-day treatment, saline-treated 35±0.3%; for ejection fraction (EF %) vs. Saline, in words: 3-week post-MI rats, 7 days post Adβarr1 gene transfer and concomitant treatment
# Description: (§1) In vivo studies: For the in vivo studies, post-MI rats overexpressing Purl in their adrenals received 7-day-long treatments with the agents of interest.
# (§2) Aldosterone measurements: Plasma aldosterone and in vitro aldosterone secretion in the supernatant of cultured H295R cells were determined by ELISA with the Aldosterone EIA kit from ALPCO Diagnostics, Salem, N.H. (Lymperopoulos A. et al. Proc. Natl. Acad. Sci. USA 106:5825-5830 2009). In vivo adrenal gene deliveries: Adrenal-specific in vivo gene delivery in rats was performed as previously described in Lymperopoulos A. et al. Proc. Natl. Acad. Sci. USA 106:5825-5830 2009). Echocardiographic and hemodynamic measurements: Two-dimensional guided M-mode and Doppler echocardiography and closed chest cardiac catheterization were performed as described in Lymperopoulos, A. et al. Nat. Med. 13:315-323 2007. Statistical analysis: Data are presented as mean±SEM. One- or two-way ANOVA with Bonferroni test was used for analysis of numeric parameters and differences were considered significant at p<0.05. Experimental Results
# (§3) Statistical analysis: p<0.05, vs. Saline, ^, p<0.05, vs. CORET (SEQ ID NO:4) or IRB, n=6 rats/group.
# AT1R [2] = target: T1, AT1R (Homo sapiens, UniProt P30556); assay: Activation of βarr2 by human AT1R in vitro by AngII peptide analogs (FIGS. 1B-C); type: cell-based; settings: for pEC50: in vitro
# T1 sequence (P30556 1-359): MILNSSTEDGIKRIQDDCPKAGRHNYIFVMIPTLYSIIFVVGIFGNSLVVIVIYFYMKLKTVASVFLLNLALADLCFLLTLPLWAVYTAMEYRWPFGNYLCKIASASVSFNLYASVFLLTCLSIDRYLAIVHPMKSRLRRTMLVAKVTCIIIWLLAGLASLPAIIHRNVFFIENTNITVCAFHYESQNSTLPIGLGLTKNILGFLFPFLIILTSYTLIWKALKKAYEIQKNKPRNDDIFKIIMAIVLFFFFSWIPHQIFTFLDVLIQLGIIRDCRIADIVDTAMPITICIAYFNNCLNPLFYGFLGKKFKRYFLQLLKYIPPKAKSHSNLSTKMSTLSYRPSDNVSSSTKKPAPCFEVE
# H295R cells = assay: In vitro βarr1-dependent SII-induced aldosterone secretion in H295R cells (ELISA); type: cell-based, human; settings: H295R cells transfected with Adβarr1, stimulated with 1 mM SII, standard doses of agents; p<0.05 vs. SII
# Description: as §2
# Of note, when endogenous Purl is inhibited, no effects by drugs and peptides on SII-induced aldosterone secretion are seen (data not shown), as expected, since SII is a “biased” βarr-only agonist (Luttrell, L. M. et al. Pharmacol. Rev. 62:305-330 2010; Rajagopal, S. et al. Nat. Rev. Drug Discov. 9:373-386 2010; Kenakin, T. et al. Pharmacol. Rev. 62:265-304 2010). Statistical analysis: <0.05, vs. SII, n=3 independent experiments.
# [3] = tested on: adrenal βarr1-overexpressing post-MI rats; assay: Plasma aldosterone in adrenal βarr1-overexpressing post-MI rats treated with sartans and CORET; type: in vivo, rat; settings: 3-week post-MI rats, 7 days post Adβarr1 adrenal gene transfer, 7-day treatment
# Description: as §1, §2
# Statistical analysis: p<0.05, vs. Saline, n=6 rats/group.
# [4] = tested on: adrenal βarr1-overexpressing post-MI rats; assay: In vivo hemodynamic analysis (cardiac contractility) of adrenal βarr1-overexpressing post-MI rats treated with sartans and CORET; set-up: species or system rat; settings: vs. Saline
# Description: as §1, §2, §3
# AT1R [5] = target: T1, AT1R; assay: Inhibition of SII-induced activation of βarr2 by human AT1R in vitro (FIG. 1A); settings: % normalized signal
# AT1R [6] = target: T1, AT1R; assay: Biased antagonism of sartans for AT1R-stimulated βarr vs. G-protein-mediated signaling (FIG. 6); settings: both IC50 in nM; <1 biased for βarr antagonism, >1 biased towards G-protein antagonism
# Description: This ranking was derived from the ratios of individual IC50 for AT1R-βarr antagonism to IC50 for G-protein antagonism (both in nM) for each sartan.
# post-MI rats [7] = assay: Plasma aldosterone (EIA) after adrenal gene delivery in post-MI rats; type: in vivo, rat
# Description: In vivo adrenal gene delivery in post-myocardial infarction (MI) rats: All animal procedures and experiments were performed in accordance with the guidelines of the IACUC committees of Thomas Jefferson and Nova Southeastern Universities. MI was performed using a known cryo-infarct method (Lymperopoulos, A. et al. Nat. Med. 13:315-323 2007). Adrenal-specific in vivo gene delivery was done essentially as described in Lymperopoulos, A. et al. (Mol. Ther. 16:302-307 2008) via direct delivery of adenovirus in the adrenal gland. […] Construction and purification of adenovirus: Recombinant adenovirus that encode full length wild-type βarr1 (Adβarr1; SEQ ID NO:1) or a rat βarr1 C-terminal fragment (Adβarr-1ct) (SEQ ID NO:3, amino acid residues 369-418 of the C-terminal of rat βarr-1 (SEQ ID NO:2); see FIG. 7A) were constructed as described in Lymperopoulos A. et al. Proc. Nati. Acad. Sci. USA 106:5825-5830 2009 and Lymperopoulos, A. et al. Nat. Med. 13:315-323 2007. […] The black box highlights the clathrin- and AP-2 adaptin-binding domains, which are necessary for the receptor internalizing and signaling functions of βarr1 (Ferguson, S. S. Pharmacol Rev 53:1-24 2001) Transgenes were cloned into shuttle vector pAdTrack-CMV, which harbors a CMV-driven green fluorescent protein (GFP), to form the viral constructs by using standard cloning protocols. As control adenovirus, empty vector which expressed only GFP (AdGFP) was used. The resultant adenovirus were purified using two sequential rounds of CsCl density gradient ultracentrifugation as described in Lymperopoulos A. et al. Proc. Natl. Acad. Sci. USA 106:5825-5830 2009 and Lymperopoulos, A. et al. Nat. Med. 13:315-323 2007. Plasma aldosterone measurements: Rat plasma aldosterone levels were determined by EIA (Aldosterone EIA Kit, ALPCO Diagnostics, Salem, N.H., USA) as described in Lymperopoulos A. et al. Proc. Natl. Acad. Sci. USA 106:5825-5830 2009 and Mihailidou et al. Hypertension 40:124-129 2002. Echocardiographic and hemodynamic measurements: Two-dimensional guided M-mode and Doppler echocardiography using a 14-Mhz transducer (Vevo 770 Echograph, VisualSonic Inc., Toronto, Ontario, Canada) and closed chest cardiac catheterization were performed in rats as described in Lymperopoulos, A. et al. Nat. Med. 13:315-323 2007 and Rengo, G. et al. Circulation 119:89-98 2009. Three independent echocardiographic measurements were taken in both modes. […]
# post-MI rat hearts = assay: Masson-trichrome staining for cardiac fibrosis in post-MI rats; type: in vivo; settings: 7 days concomitant drug vs. vehicle (saline)
# Description: (§4) In vivo adrenal gene delivery in post-myocardial infarction (MI) rats: All animal procedures and experiments were performed in accordance with the guidelines of the IACUC committees of Thomas Jefferson and Nova Southeastern Universities. MI was performed using a known cryo-infarct method (Lymperopoulos, A. et al. Nat. Med. 13:315-323 2007). Adrenal-specific in vivo gene delivery was done essentially as described in Lymperopoulos, A. et al. (Mol. Ther. 16:302-307 2008) via direct delivery of adenovirus in the adrenal gland. […] Construction and purification of adenovirus: Recombinant adenovirus that encode full length wild-type βarr1 (Adβarr1; SEQ ID NO:1) or a rat βarr1 C-terminal fragment (Adβarr-1ct) (SEQ ID NO:3, amino acid residues 369-418 of the C-terminal of rat βarr-1 (SEQ ID NO:2); see FIG. 7A) were constructed as described in Lymperopoulos A. et al. Proc. Nati. Acad. Sci. USA 106:5825-5830 2009 and Lymperopoulos, A. et al. Nat. Med. 13:315-323 2007. […] Plasma aldosterone measurements: Rat plasma aldosterone levels were determined by EIA (Aldosterone EIA Kit, ALPCO Diagnostics, Salem, N.H., USA) as described in Lymperopoulos A. et al. Proc. Natl. Acad. Sci. USA 106:5825-5830 2009 and Mihailidou et al. Hypertension 40:124-129 2002. […]
# post-MI rats [8] = assay: Echocardiographic parameters after adrenal gene delivery in post-MI rats; type: in vivo, rat; settings: Adβarr1 post-MI rats
# Description: as §4
compound,measurement,setting,value
"CCOc1nc2cccc(C(=O)O)c2n1Cc1ccc(-c2ccccc2-c2nnn[nH]2)cc1 [CAN, Candesartan]",cardiac ejection fraction (EF),[1],41.1±1%
"CCSC[C@H](NC(=O)[C@H](Cc1ccc(O)cc1)NC(=O)[C@@H](NC(=O)[C@H](CCCNC(=N)N)NC(=O)CNC)C(C)C)C(=O)N[C@@H](Cc1c[nH]cn1)C(=O)N1CCC[C@H]1C(=O)N[C@@H](CC(C)C)C(=O)O [CORET, Sar^1,Cys(Et)^5,Leu^8-AngII] (H-[Sar]RVYC(Et)HPL-OH; N-terminus and C-terminus assumed)",pEC50,AT1R [2],9.00
same,times less potent than AngII for βarr activation by the AT1R,AT1R [2]; ratio of EC50s,10 times
same,SII-induced aldosterone secretion,H295R cells,can enhance; also recorded: far greater aldosterone secretion in vitro than SII
same,plasma aldosterone levels vs. Saline,[3],an increase; also recorded: significantly worsens hyperaldosteronism
same,"ejection fraction (EF %) vs. Saline, in words",[1],further worsened cardiac function
same,myocardial systolic function in response to maximal dose of Isoproterenol (Max. Iso),[4],severely impaired myocardial systolic function
"CCCCC1=NC2(CCCC2)C(=O)N1Cc1ccc(-c2ccccc2-c2nnn[nH]2)cc1 [IRB, Irbesartan]",plasma aldosterone levels vs. Saline,[3],unable to counter the adrenal βarr1-mediated hyperaldosteronism
same,"ejection fraction (EF %) vs. Saline, in words",[1],further worsened cardiac function
same,cardiac ejection fraction (EF),[1],32±1%
same,myocardial systolic function in response to maximal dose of Isoproterenol (Max. Iso),[4],severely impaired myocardial systolic function
same,relative potency for inhibition of SII-induced activation of βarr2 by human AT1R,AT1R [5],the least potent βarr inhibitors
same,ratio of IC50 for AT1R-βarr antagonism to IC50 for G-protein antagonism,AT1R [6],1.05
"CCCCc1nc(Cl)c(CO)n1Cc1ccc(-c2ccccc2-c2nn[nH]n2)cc1 [LOS, Losartan]",plasma aldosterone reduction by losartan in Adβarr1ct-treated post-MI rats,post-MI rats [7]; losartan 50 mg/kg/day for 7 days post-gene delivery,no significant aldosterone reduction
same,"plasma aldosterone, losartan-treated control AdGFP post-MI rats","post-MI rats [7]; losartan 50 mg/kg/day for 7 days post-gene delivery, saline-treated 470±20",402 ± 10 pg/mL
same,"plasma aldosterone, losartan-treated Adβarr1 post-MI rats","post-MI rats [7]; losartan 50 mg/kg/day for 7 days post-gene delivery, saline-treated 845±150, not significant",880 ± 88 pg/mL
same,cardiac fibrosis in Adβarr1-adrenal treated rat hearts under drug treatment,post-MI rat hearts,incapable of reducing the cardiac fibrosis
"CC[C@H](C)[C@H](NC(=O)[C@@H]1CCCN1C(=O)[C@H](Cc1c[nH]cn1)NC(=O)[C@@H](NC(=O)[C@@H](NC(=O)[C@@H](NC(=O)[C@H](CCCNC(=N)N)NC(=O)CNC)C(C)C)[C@@H](C)CC)[C@@H](C)CC)C(=O)O [SII, Sar^1,Ile^4,Ile^8-AngII]",pEC50,AT1R [2],7.95
"CCCCC(=O)N(Cc1ccc(-c2ccccc2-c2nnn[nH]2)cc1)[C@H](C(=O)O)C(C)C [VAL, Valsartan]",SII-induced aldosterone secretion,H295R cells,can inhibit
same,plasma aldosterone levels vs. Saline,[3],profound decreases
same,plasma aldosterone levels vs. Saline,[3]; listed as valsartan,significant plasma aldosterone reductions
same,"ejection fraction (EF %) vs. Saline, in words",[1],significantly improved
same,cardiac ejection fraction (EF),[1],40±1%
same,myocardial systolic function in response to maximal dose of Isoproterenol (Max. Iso),[4],significantly improves it
COC(=O)[C@@H]1CC2=CC(=O)CC[C@]2(C)[C@@]23O[C@@H]2C[C@@]2(C)[C@@H](CC[C@@]24CCC(=O)O4)[C@H]13 [eplerenone],effect on plasma aldosterone increase caused by Adβarr1 treatment,"post-MI rats [7]; Adβarr1 post-MI rats, 100 mg/kg/day eplerenone for 7 days",no effect
same,EF reduction and LVEDD increase induced by adrenal βarr1 overexpression,post-MI rats [8]; eplerenone 100 mg/kg/d for 7 days,prevented
same,"effects of adrenal βarr1 overexpression (EF, LVEDD)","post-MI rats [8]; eplerenone low dose 5 mg/kg/d, data not shown",prevented
same,cardiac fibrosis in Adβarr1-adrenal treated rat hearts under drug treatment,post-MI rat hearts,markedly reduced fibrosis
